Common to all, as to assay: Enzymatic activity of PI3K isoforms, TR-FRET assay (PIP3 formation)
Common to all, as to assay type: biochemical
(In general: Time-resolved FRET reads energy transfer from a long-lived donor to a nearby acceptor.)

Experiment [1] has as its target PI3Kγ (Homo sapiens (Human), UniProt P48736). Summed up: (§1)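 IC50 (nM) reflects inhibition of PIP3 formation by purified recombinant heterodimeric PI3K, measured as loss of TR-FRET signal. The read-out comes from competition between enzyme-made PIP3 and labelled PIP3 for binding to the GRP-1 pleckstrin homology domain.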
Experiment [2] concerns the target PI3Kβ (Homo sapiens (Human), UniProt P42338). Summed up: as §1
For experiment [3], the target named is PI3Kδ (Homo sapiens (Human), UniProt O00329). Summed up:
(§2)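 After 30 min at 25° C, reactions were quenched with 10 mM EDTA plus 10 nM labeled-PIP3 and 35 nM Europium-GRP-1, and TR-FRET was read (Ex 340, Em 615/665 nm). Enzymes were purified recombinant heterodimers; product PIP3 competes off the labeled tracer. Values given as IC50, nM.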

In experiment [4] the target is PI3Kα (Homo sapiens (Human), UniProt P42336). Summed up:
as §2

A word on the IC50: it is the concentration that inhibits the measured activity by half. A higher IC50 goes with lower potency.

Chain of PI3Kγ (P48736 whole entry, the tested form may be a part): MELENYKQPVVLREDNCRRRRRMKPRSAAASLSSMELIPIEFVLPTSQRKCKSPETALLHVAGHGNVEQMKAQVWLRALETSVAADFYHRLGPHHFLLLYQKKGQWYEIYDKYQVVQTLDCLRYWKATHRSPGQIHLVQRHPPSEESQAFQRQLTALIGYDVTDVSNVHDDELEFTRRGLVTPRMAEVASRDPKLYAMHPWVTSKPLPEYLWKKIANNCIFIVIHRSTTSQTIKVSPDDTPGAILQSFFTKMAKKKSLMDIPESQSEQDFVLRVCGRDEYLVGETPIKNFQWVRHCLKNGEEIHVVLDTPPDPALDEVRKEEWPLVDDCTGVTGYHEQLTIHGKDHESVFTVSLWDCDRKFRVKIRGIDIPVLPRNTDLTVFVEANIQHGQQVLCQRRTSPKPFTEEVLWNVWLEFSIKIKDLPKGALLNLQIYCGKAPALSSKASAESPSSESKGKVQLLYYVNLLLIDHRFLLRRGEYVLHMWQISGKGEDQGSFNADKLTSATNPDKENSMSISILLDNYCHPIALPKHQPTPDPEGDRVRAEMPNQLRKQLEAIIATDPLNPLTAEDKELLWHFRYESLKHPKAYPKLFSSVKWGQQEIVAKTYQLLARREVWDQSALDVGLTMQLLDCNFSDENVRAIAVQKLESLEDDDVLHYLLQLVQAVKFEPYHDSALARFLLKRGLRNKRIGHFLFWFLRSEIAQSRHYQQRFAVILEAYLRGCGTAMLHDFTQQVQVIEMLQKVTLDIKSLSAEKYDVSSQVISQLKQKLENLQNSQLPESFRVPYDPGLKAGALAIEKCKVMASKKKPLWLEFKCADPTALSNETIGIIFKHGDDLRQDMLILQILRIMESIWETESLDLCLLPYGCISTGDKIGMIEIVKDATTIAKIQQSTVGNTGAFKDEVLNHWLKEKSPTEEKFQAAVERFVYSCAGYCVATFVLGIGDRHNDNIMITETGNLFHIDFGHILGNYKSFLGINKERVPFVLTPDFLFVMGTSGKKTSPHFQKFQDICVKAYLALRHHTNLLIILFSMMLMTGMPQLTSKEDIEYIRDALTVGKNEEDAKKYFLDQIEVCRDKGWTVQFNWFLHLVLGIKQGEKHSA
Chain of PI3Kγ (Q8WYR1 whole entry partner, the tested form may be a part): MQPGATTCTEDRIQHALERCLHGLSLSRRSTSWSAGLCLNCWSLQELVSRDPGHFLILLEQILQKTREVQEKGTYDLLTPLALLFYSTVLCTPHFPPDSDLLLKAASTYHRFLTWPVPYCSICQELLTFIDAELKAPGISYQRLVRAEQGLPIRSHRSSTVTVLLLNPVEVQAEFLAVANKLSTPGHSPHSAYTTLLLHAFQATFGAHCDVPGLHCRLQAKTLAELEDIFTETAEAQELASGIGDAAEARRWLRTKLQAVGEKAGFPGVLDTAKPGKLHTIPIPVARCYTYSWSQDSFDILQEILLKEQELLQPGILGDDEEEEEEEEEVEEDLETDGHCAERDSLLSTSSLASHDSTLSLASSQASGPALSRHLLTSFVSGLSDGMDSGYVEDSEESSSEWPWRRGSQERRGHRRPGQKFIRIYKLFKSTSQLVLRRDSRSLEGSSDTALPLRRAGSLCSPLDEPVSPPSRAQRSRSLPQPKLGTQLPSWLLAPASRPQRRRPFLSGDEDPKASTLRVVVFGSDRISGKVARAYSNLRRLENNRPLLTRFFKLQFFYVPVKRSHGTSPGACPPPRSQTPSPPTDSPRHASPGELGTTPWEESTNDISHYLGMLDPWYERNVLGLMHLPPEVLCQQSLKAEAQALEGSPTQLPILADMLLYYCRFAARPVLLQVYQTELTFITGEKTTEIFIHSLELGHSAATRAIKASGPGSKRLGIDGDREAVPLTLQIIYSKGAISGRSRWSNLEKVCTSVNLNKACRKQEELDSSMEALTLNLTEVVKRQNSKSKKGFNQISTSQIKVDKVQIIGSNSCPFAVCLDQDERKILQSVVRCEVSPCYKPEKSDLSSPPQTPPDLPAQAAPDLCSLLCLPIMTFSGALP
Chain of PI3Kα (P42336 whole entry): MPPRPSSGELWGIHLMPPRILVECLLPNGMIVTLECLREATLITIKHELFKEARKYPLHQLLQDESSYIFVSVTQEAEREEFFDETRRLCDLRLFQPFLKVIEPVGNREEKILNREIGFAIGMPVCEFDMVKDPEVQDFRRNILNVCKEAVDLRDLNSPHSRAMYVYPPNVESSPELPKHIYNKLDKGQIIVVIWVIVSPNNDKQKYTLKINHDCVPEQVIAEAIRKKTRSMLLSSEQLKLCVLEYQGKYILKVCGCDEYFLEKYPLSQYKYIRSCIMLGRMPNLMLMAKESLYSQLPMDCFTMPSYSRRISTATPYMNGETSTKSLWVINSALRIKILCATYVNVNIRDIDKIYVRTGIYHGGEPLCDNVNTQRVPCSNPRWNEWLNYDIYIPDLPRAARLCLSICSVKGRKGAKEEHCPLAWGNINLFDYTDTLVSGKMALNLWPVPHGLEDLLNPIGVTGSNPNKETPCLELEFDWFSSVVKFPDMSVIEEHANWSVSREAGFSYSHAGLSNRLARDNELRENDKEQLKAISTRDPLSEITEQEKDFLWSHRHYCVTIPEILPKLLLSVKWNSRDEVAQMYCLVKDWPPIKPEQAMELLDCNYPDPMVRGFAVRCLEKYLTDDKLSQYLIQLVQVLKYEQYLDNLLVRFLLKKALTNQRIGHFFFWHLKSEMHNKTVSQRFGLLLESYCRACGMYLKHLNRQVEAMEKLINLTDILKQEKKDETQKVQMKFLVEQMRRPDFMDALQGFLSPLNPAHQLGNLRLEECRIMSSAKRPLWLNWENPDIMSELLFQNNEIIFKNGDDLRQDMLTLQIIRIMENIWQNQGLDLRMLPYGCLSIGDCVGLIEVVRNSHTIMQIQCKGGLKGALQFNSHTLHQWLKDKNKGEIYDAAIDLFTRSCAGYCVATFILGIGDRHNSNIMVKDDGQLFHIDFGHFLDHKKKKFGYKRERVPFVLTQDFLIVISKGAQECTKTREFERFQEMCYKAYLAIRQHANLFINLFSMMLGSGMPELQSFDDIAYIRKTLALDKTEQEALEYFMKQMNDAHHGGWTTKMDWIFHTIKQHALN
Chain of PI3Kα (P27986 whole entry partner): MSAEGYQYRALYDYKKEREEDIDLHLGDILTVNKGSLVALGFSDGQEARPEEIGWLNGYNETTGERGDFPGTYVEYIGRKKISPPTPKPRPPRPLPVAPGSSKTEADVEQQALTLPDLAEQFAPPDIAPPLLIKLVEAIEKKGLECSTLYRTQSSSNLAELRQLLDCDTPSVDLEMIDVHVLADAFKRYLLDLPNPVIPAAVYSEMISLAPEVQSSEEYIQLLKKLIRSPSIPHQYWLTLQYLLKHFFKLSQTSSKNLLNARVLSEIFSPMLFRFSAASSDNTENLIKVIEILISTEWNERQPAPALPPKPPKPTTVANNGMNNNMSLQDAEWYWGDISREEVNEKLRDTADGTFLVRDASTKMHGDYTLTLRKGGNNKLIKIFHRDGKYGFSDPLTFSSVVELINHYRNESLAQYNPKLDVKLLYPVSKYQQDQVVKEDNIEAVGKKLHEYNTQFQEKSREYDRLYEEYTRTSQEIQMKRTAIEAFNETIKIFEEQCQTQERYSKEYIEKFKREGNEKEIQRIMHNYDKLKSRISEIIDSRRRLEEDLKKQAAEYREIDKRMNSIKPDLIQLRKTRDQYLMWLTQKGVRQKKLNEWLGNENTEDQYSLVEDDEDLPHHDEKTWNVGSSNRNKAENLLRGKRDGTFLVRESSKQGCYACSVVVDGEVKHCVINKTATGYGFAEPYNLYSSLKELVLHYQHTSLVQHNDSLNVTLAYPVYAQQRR
Chain of PI3Kβ (P42338 whole entry): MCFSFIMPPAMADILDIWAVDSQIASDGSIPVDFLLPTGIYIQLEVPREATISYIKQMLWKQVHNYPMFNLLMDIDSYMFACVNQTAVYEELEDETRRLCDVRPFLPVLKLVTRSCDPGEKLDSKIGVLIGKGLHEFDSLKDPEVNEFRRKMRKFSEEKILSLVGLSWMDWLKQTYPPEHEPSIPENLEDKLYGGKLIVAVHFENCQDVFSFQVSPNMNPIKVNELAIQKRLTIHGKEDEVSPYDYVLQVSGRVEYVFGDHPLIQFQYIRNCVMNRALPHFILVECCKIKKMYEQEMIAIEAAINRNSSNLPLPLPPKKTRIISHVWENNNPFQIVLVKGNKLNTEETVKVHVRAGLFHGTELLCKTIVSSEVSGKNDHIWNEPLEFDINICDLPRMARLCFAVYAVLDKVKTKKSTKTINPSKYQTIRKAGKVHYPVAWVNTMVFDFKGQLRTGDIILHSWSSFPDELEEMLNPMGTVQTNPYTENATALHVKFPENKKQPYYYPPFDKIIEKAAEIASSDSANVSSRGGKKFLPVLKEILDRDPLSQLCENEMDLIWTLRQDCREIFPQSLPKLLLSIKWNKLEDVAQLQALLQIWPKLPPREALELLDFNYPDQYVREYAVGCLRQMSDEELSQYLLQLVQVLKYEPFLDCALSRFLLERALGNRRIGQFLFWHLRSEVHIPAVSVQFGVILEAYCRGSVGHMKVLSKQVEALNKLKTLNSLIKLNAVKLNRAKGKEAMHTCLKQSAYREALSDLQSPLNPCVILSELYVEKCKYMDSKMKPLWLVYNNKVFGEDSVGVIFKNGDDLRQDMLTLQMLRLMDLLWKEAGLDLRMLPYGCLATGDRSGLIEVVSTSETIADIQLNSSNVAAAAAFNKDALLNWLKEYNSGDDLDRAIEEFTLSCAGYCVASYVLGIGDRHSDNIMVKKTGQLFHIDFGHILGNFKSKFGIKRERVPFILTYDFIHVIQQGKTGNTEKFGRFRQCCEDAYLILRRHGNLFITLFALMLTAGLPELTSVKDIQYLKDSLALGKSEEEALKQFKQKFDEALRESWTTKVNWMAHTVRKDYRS
Chain of PI3Kβ (P27986 whole entry partner): as the sequence (P27986 whole entry partner) above

Regarding `C[C@H](Nc1ncnc(N)c1C#Cc1ccc(F)cn1)c1nc2cccc(Cl)c2c(=O)n1-c1cccc(C#N)c1` [Compound 92a, (S)-3-(2-(1-((6-amino-5-((5-fluoropyridin-2-yl)ethynyl)pyrimidin-4-yl)amino)ethyl)-5-chloro-4-oxoquinazolin-3(4H)-yl)benzonitrile], the IC50 in experiment [1] (bound given in uM) is above 1 µM; in experiment [2] (bound given in uM) it was above 1 µM; in experiment [3] (bound given in nM) it was below 100 nM; in experiment [4] (bound given in uM), above 1 µM.

On to `C[C@H](Nc1ncnc(N)c1C#CC(C)(C)O)c1nc2cccc(Cl)c2c(=O)n1-c1cc(F)cc(F)c1` [Compound 28a, (S)-2-(1-(6-amino-5-(3-hydroxy-3-methylbut-1-ynyl)pyrimidin-4-ylamino)ethyl)-5-chloro-3-(3,5-difluorophenyl)quinazolin-4(3H)-one], for which the IC50 in experiment [1] (bound given in uM) is above 1 µM; in experiment [2] (bound given in uM), above 1 µM; in experiment [3] (bound given in nM) it was below 100 nM; in experiment [4] (bound given in uM), above 1 µM.

Regarding `C[C@H](Nc1ncnc(N)c1C#Cc1ccc(C(F)(F)F)cn1)c1nc2cccc(Cl)c2c(=O)n1-c1ccccc1` [Compound 132a, (S)-2-(1-((6-amino-5-((5-(trifluoromethyl)pyridin-2-yl)ethynyl)pyrimidin-4-yl)amino)ethyl)-5-chloro-3-phenylquinazolin-4(3H)-one], the IC50 in experiment [1] (bound given in nM) is below 0.1 µM; in experiment [2] (bound given in uM) it was above 1 µM; in experiment [3] (bound given in nM) it was below 100 nM; in experiment [4] (bound given in uM) it was above 1 µM.

Regarding `C[C@H](Nc1ncnc(N)c1C#Cc1cccc(N)n1)c1nc2cccc(Cl)c2c(=O)n1-c1ccccc1` [Compound 31a, (S)-2-(1-(6-amino-5-((6-aminopyridin-2-yl)ethynyl)pyrimidin-4-ylamino)ethyl)-5-chloro-3-phenylquinazolin-4(3H)-one], the IC50 in experiment [1] (bound given in nM) was below 0.1 µM; in experiment [2] (bound given in nM) it was below 0.1 µM; in experiment [3] (bound given in nM), below 100 nM; in experiment [4] (bound given in nM), below 0.1 µM.

Turning to `C[C@H](Nc1ncnc(N)c1C#Cc1ccc(F)cn1)c1nc2cccc(Cl)c2c(=O)n1-c1cccc(-c2ccccc2)c1` [Compound 60a, (S)-3-([1,1′-biphenyl]-3-yl)-2-(1-((6-amino-5-((5-fluoropyridin-2-yl)ethynyl)pyrimidin-4-yl)amino)ethyl)-5-chloroquinazolin-4(3H)-one], the IC50 in experiment [1] (bound given in uM) is above 1 µM; in experiment [2] (bound given in uM), above 1 µM; in experiment [3] (bound given in nM), below 100 nM; in experiment [4] (bound given in uM), above 1 µM.

As to `C[C@H](Nc1ncnc(N)c1C#Cc1ccc(F)cn1)c1nc2ccc(F)cc2c(=O)n1-c1cccc(Cl)c1` [Compound 96a, (S)-2-(1-((6-amino-5-((5-fluoropyridin-2-yl)ethynyl)pyrimidin-4-yl)amino)ethyl)-3-(3-chlorophenyl)-6-fluoroquinazolin-4(3H)-one], the IC50 was above 1 µM in experiment [1] (bound given in uM), above 1 µM in experiment [2] (bound given in uM), below 100 nM in experiment [3] (bound given in nM) and above 1 µM in experiment [4] (bound given in uM).

For the compound `CC[C@H](Nc1ncnc(N)c1C#Cc1cnccn1)c1nc2cccc(C(F)F)c2c(=O)n1-c1cc(F)cc(F)c1` [Compound 74a, (S)-2-(1-((6-amino-5-(pyrazin-2-ylethynyl)pyrimidin-4-yl)amino)propyl)-5-(difluoromethyl)-3-(3,5-difluorophenyl)quinazolin-4(3H)-one], the IC50 is above 1 µM in experiment [1] (bound given in uM), above 1 µM in experiment [2] (bound given in uM), below 100 nM in experiment [3] (bound given in nM) and above 1 µM in experiment [4] (bound given in uM).

As for `C[C@H](Nc1ncnc(N)c1C#Cc1ncc(F)cc1F)c1nc2cccc(Cl)c2c(=O)n1-c1ccccc1` [Compound 82a, (S)-2-(1-((6-amino-5-((3,5-difluoropyridin-2-yl)ethynyl)pyrimidin-4-yl)amino)ethyl)-5-chloro-3-phenylquinazolin-4(3H)-one], the IC50 in experiment [1] (bound given in uM) was above 1 µM; in experiment [2] (bound given in uM), above 1 µM; in experiment [3] (bound given in nM), below 100 nM; in experiment [4] (bound given in uM), above 1 µM.

Regarding `C[C@H](Nc1ncnc(N)c1C#CC1CC1)c1nc2cccc(Cl)c2c(=O)n1-c1cc(F)cc(F)c1` [Compound 23a, (S)-2-(1-(6-amino-5-(cyclopropylethynyl)pyrimidin-4-ylamino)ethyl)-5-chloro-3-(3,5-difluorophenyl)quinazolin-4(3H)-one], the IC50 was above 1 µM in experiment [1] (bound given in uM), above 1 µM in experiment [2] (bound given in uM), below 100 nM in experiment [3] (bound given in nM) and above 1 µM in experiment [4] (bound given in uM).

Regarding `C[C@H](Nc1ncnc(N)c1C#Cc1cnccn1)c1nc2ccc(F)cc2c(=O)n1-c1cccc(Cl)c1` [Compound 97a, (S)-2-(1-((6-amino-5-(pyrazin-2-ylethynyl)pyrimidin-4-yl)amino)ethyl)-3-(3-chlorophenyl)-6-fluoroquinazolin-4(3H)-one], the IC50 was above 1 µM in experiment [1] (bound given in uM), above 1 µM in experiment [2] (bound given in uM), below 100 nM in experiment [3] (bound given in nM) and above 1 µM in experiment [4] (bound given in uM).

For the compound `C[C@H](Nc1ncnc(N)c1C#C[C@@H](C)O)c1nc2cccc(Cl)c2c(=O)n1-c1ccccc1` [Compound 19a, 2-((S)-1-(6-amino-5-((R)-3-hydroxybut-1-ynyl)pyrimidin-4-ylamino)ethyl)-5-chloro-3-phenylquinazolin-4(3H)-one], the IC50 in experiment [1] (bound given in uM) is above 1 µM; in experiment [2] (bound given in uM), above 1 µM; in experiment [3] (bound given in nM), below 100 nM; in experiment [4] (bound given in uM), above 1 µM.

Take `CCc1cccc(-n2c([C@H](C)Nc3ncnc(N)c3C#Cc3ccc(F)cn3)nc3cccc(Cl)c3c2=O)c1` [Compound 61a, (S)-2-(1-((6-amino-5-((5-fluoropyridin-2-yl)ethynyl)pyrimidin-4-yl)amino)ethyl)-5-chloro-3-(3-ethylphenyl)quinazolin-4(3H)-one]: the concentration for half-maximal inhibition (IC50) in experiment [1] (bound given in uM) is above 1 µM; in experiment [2] (bound given in uM), above 1 µM; in experiment [3] (bound given in nM), below 100 nM; in experiment [4] (bound given in uM), above 1 µM.

`C[C@H](Nc1ncnc(N)c1C#Cc1ccc(F)cn1)c1nc2cccc(Cl)c2c(=O)n1-c1cc(F)cc(F)c1` (single isomer, unassigned) [Compound 9a]: the concentration for half-maximal inhibition (IC50) in experiment [1] (bound given in uM) is above 1 µM; in experiment [2] (bound given in uM) it was above 1 µM; in experiment [3] (bound given in nM) it was below 100 nM; in experiment [4] (bound given in uM), above 1 µM.

With `C[C@H](Nc1ncnc(N)c1C#Cc1ncccn1)c1nc2cccc(Cl)c2c(=O)n1-c1cccnc1` [Compound 117a, (S)-2-(1-((6-amino-5-(pyrimidin-2-ylethynyl)pyrimidin-4-yl)amino)ethyl)-5-chloro-3-(pyridin-3-yl)quinazolin-4(3H)-one], the IC50 in experiment [1] (bound given in uM) was above 1 µM; in experiment [2] (bound given in uM), above 1 µM; in experiment [3] (bound given in nM), below 100 nM; in experiment [4] (bound given in uM) it was above 1 µM.

For the compound `Cc1cccc2nc([C@H](C)Nc3ncnc(N)c3C#Cc3ncccn3)n(-c3cc(F)cc(F)c3)c(=O)c12` [Compound 105a, (S)-2-(1-((6-amino-5-(pyrimidin-2-ylethynyl)pyrimidin-4-yl)amino)ethyl)-3-(3,5-difluorophenyl)-5-methylquinazolin-4(3H)-one], the IC50 in experiment [1] (bound given in uM) is above 1 µM; in experiment [2] (bound given in uM) it was above 1 µM; in experiment [3] (bound given in nM), below 100 nM; in experiment [4] (bound given in uM), above 1 µM.

As for `COc1cccc(-n2c([C@H](C)Nc3ncnc(N)c3C#Cc3ncccc3F)nc3cccc(Cl)c3c2=O)c1C` [81-1a], the IC50 is above 1 µM in experiment [1] (bound given in uM), above 1 µM in experiment [2] (bound given in uM), below 100 nM in experiment [3] (bound given in nM) and above 1 µM in experiment [4] (bound given in uM).

Consider `C[C@H](Nc1ncnc(N)c1C#Cc1cnccn1)c1nc2cccc(F)c2c(=O)n1-c1cc(F)cc(F)c1` [Compound 87a, (S)-2-(1-((6-amino-5-(pyrazin-2-ylethynyl)pyrimidin-4-yl)amino)ethyl)-3-(3,5-difluorophenyl)-5-fluoroquinazolin-4(3H)-one], for which the IC50 in experiment [1] (bound given in uM) was above 1 µM; in experiment [2] (bound given in uM), above 1 µM; in experiment [3] (bound given in nM) it was below 100 nM; in experiment [4] (bound given in uM), above 1 µM.

Take `COc1cccc(-n2c([C@H](C)Nc3ncnc(N)c3C#Cc3ncccc3F)nc3cccc(Cl)c3c2=O)c1C` [81-2a]: the IC50 was above 1 µM in experiment [1] (bound given in uM), above 1 µM in experiment [2] (bound given in uM), below 100 nM in experiment [3] (bound given in nM) and above 1 µM in experiment [4] (bound given in uM).

In the case of `COC[C@@H](Nc1ncnc(N)c1C#Cc1ccc(F)cn1)c1nc2cccc(Cl)c2c(=O)n1-c1cc(F)cc(F)c1` [146b], the IC50 in experiment [1] (bound given in uM) was above 1 µM; in experiment [2] (bound given in uM) it was above 1 µM; in experiment [3] (bound given in nM), below 100 nM; in experiment [4] (bound given in uM), above 1 µM.

On to `CC(C)CS(=O)(=O)NCc1cccc(-n2c([C@H](C)Nc3ncnc(N)c3C#Cc3ccc(F)cn3)nc3cccc(Cl)c3c2=O)c1` [Compound 131a, (S)—N-(3-(2-(1-((6-amino-5-((5-fluoropyridin-2-yl)ethynyl)pyrimidin-4-yl)amino)ethyl)-5-chloro-4-oxoquinazolin-3(4H)-yl)benzyl)-2-methylpropane-1-sulfonamide], for which the 50% inhibitory concentration (IC50) in experiment [1] (bound given in uM) is above 1 µM; in experiment [2] (bound given in uM), above 1 µM; in experiment [3] (bound given in nM), below 100 nM; in experiment [4] (bound given in uM), above 1 µM.

Consider `C[C@H](Nc1ncnc(N)c1C#Cc1ncccc1CO)c1nc2cccc(Cl)c2c(=O)n1-c1ccccc1` [Compound 163a, (S)-2-(1-((6-amino-5-((3-(hydroxymethyl)pyridin-2-yl)ethynyl)pyrimidin-4-yl)amino)ethyl)-5-chloro-3-phenylquinazolin-4(3H)-one], for which the IC50 is above 1 µM in experiment [1] (bound given in uM), above 1 µM in experiment [2] (bound given in uM), above 1000 nM in experiment [3] (bound given in uM) and above 1 µM in experiment [4] (bound given in uM).

For `C[C@H](Nc1ncnc(N)c1C#Cc1ccc(F)cn1)c1nc2c(F)cccc2c(=O)n1-c1cc(F)cc(F)c1` [Compound 2a, (S)-2-(1-((6-amino-5-((5-fluoropyridin-2-yl)ethynyl)pyrimidin-4-yl)amino)ethyl)-3-(3,5-difluorophenyl)-8-fluoroquinazolin-4(3H)-one], the IC50 in experiment [1] (bound given in uM) is above 1 µM; in experiment [2] (bound given in uM), above 1 µM; in experiment [3] (bound given in nM) it was below 100 nM; in experiment [4] (bound given in uM) it was above 1 µM.

(Values after patent US9266878B2, “Phosphatidylinositol 3-kinase inhibitors” (Gilead Calistoga LLC, priority 2012, dated 2016).)
